# In US20150045313A1, “Ectoparasiticidal Methods and Formulations” (Eli Lilly and Company, priority 2009, published 2015):
# Read-outs that look alike come from different tables or passages of the source.
# Columns and labels:
# house flies = tested on: house flies
# Protocol: Knockdown and residual efficacy testing and comparison of spinetoram with Elector® for controlling house flies on treated panels.
# Test material concentrates of spinetoram (120 g/L suspension concentrate) and spinosad (25 g/L suspension concentrate, Elector) were diluted in distilled water to the desired testing concentrations of either 0.04% (spinetoram only) or 0.08% (both) per label recommended premise spray use rate for controlling house flies with Elector. One square foot panels, obtained from commercial building suppliers, were composed of non-treated plywood, concrete and sheet metal. A second set of both plywood and concrete substrates were primed and painted using exterior grade latex white latex paint. Diluted materials were sprayed onto panels to the point of run-off (approximately 5 seconds per panel). A total of 4 panels were tested per treatment group (n=4). House flies were anesthetized using carbon dioxide and placed inside of plastic containers secured onto panels. There were 4 sub-replicates containers per panel, each container containing 10 mixed-sex adult flies (40 flies per panel). Glucose-saturated dental wicks were secured through a hole in each cup to provide a food and water source for flies. Panels remained upright throughout testing. Fly mortality and moribundity was assessed at post-exposure intervals of 4, 8, 24, 48 and 72 hours immediately following treatment applications and again on a weekly basis for 1 month.
# Boophilus annulatus = experiment: Whole-body spray treatment of Boophilus annulatus infestations on cattle; format: in vivo
# Protocol: C) Efficacy Testing and comparison of topically applied spinetoram with spinosad for the treatment of Boophilus annulatus infestations on cattle. Technical spinetoram and technical spinosad both formulated as 25 g/L suspension concentrate formulations similar to commercial Elector. Stability assays (HPLC and LPT bioassays) were conducted to confirm potency over extended periods of time (5 weeks) at cool and shelf-temperatures. Cattle were pre-infested 21 d prior to treatment with larval-stage B. annulatus ticks resulting the presence of very high numbers of all three life-stages of this tick at the time of treatment. Test materials were diluted to 0.025% (250 ppm) and applied to cattle as whole-body topical sprays in a volume of 10 L per animal. There were a total of six animals per treatment group (n=6). Animals were housed in covered stalls under ambient conditions of temperature and humidity. Engorged, detached adult female ticks were retrieved from animals in each stall on a daily basis. Egg masses were weighed and eggs were set for hatching to assess viability. Efficacy was measured in terms of total numbers of female ticks per animal and index of fecundity (IF).
# Means were tested by General Linear Model (GLM), 1-way ANOVA. Differences (P<0.05) among means were separated using Tukey's all pairwise comparison. Means within the same column followed by different letters were significant at the P<0.05 level.
# Means were tested by General Linear Model (GLM), 2-way ANOVA with parasitic life stage and treatment group as main effects. NS denotes not significant.
# fleas (C. felis) = experiment: Third evaluation, speed-of-kill of topical spot-on against fleas on cats; format: in vivo; design: flea reduction 12 hours after additional infestation: concentration or dose not given beside the values
# Protocol: Third evaluation of spinetoram as a topical spot-on for control of cat flea infestations. A study was conducted to evaluate the speed-of-kill efficacy of spinetoram applied topically for the control of fleas (C. felis) on cats. Thirty-six cats were evenly allocated into six groups. One group was a no treatment and no vehicle group. On study days −8 and −1, each cat was infested with approximately 100 newly emerged, unfed adult fleas (C. felis), with an approximate split of 50/50 male to female flea. The topical solution used was spinetoram, on a pure basis, 39.6% w/w (210 mg spinetoram/0.5 ml dose), with benzyl alcohol and butylated hydroxytoluene. The treated groups were dosed once on Study Day 0 by application at the base of the skull at skin level, and flea counts were conducted as follows: […]
# [1] = 4 Week Residual Activity, Sheet Metal, 400 ppm
# [2] = 4 Week Residual Activity, Sheet Metal, 800 ppm
# [3] = 4 Week Residual Activity, Unpainted Concrete, 400 ppm
# [4] = 4 Week Residual Activity, Unpainted Concrete, 800 ppm
# [5] = 4 Week Residual Activity, Unpainted Wood, 400 ppm
# [6] = 4 Week Residual Activity, Unpainted Wood, 800 ppm
# [7] = Initial Activity, Sheet Metal, 400 ppm
# [8] = Initial Activity, Sheet Metal, 800 ppm
# [9] = Initial Activity, Unpainted Concrete, 400 ppm
# [10] = Initial Activity, Unpainted Concrete, 800 ppm
# [11] = Initial Activity, Unpainted Wood, 400 ppm
# [12] = Initial Activity, Unpainted Wood, 800 ppm
# [13] = cattle, 0.025% AI whole-body spray, mean ± SD
substance,measurement,setting,value
Spinetoram,% House Fly Mortality at 4 h,house flies; [1],0%
same,% House Fly Mortality at 8 h,house flies; [1],40.6%
same,% House Fly Mortality at 24 h,house flies; [1],91.3%
same,% House Fly Mortality at 48 h,house flies; [1],97.3%
same,% House Fly Mortality at 4 h,house flies; [2],0.6%
same,% House Fly Mortality at 8 h,house flies; [2],26.3%
same,% House Fly Mortality at 24 h,house flies; [2],80.6%
same,% House Fly Mortality at 48 h,house flies; [2],96.3%
same,% House Fly Mortality at 4 h,house flies; [3],4.2%
same,% House Fly Mortality at 8 h,house flies; [3],80.0%
same,% House Fly Mortality at 24 h,house flies; [3],100%
same,% House Fly Mortality at 48 h,house flies; [3],100%
same,% House Fly Mortality at 4 h,house flies; [4],31.3%
same,% House Fly Mortality at 8 h,house flies; [4],98.8%
same,% House Fly Mortality at 24 h,house flies; [4],100%
same,% House Fly Mortality at 48 h,house flies; [4],100%
same,% House Fly Mortality at 4 h,house flies; [5],0.6%
same,% House Fly Mortality at 8 h,house flies; [5],0.6%
same,% House Fly Mortality at 24 h,house flies; [5],4.7%
same,% House Fly Mortality at 48 h,house flies; [5],12.1%
same,% House Fly Mortality at 4 h,house flies; [6],0%
same,% House Fly Mortality at 8 h,house flies; [6],0%
same,% House Fly Mortality at 24 h,house flies; [6],22.6%
same,% House Fly Mortality at 48 h,house flies; [6],61.2%
same,% House Fly Mortality at 4 h,house flies; [7],19.7%
same,% House Fly Mortality at 8 h,house flies; [7],91.8%
same,% House Fly Mortality at 24 h,house flies; [7],100%
same,% House Fly Mortality at 48 h,house flies; [7],100%
same,% House Fly Mortality at 4 h,house flies; [8],31.5%
same,% House Fly Mortality at 8 h,house flies; [8],100%
same,% House Fly Mortality at 24 h,house flies; [8],100%
same,% House Fly Mortality at 48 h,house flies; [8],100%
same,% House Fly Mortality at 4 h,house flies; [9],45.4%
same,% House Fly Mortality at 8 h,house flies; [9],98.6%
same,% House Fly Mortality at 24 h,house flies; [9],100%
same,% House Fly Mortality at 48 h,house flies; [9],100%
same,% House Fly Mortality at 4 h,house flies; [10],42.5%
same,% House Fly Mortality at 8 h,house flies; [10],99.2%
same,% House Fly Mortality at 24 h,house flies; [10],100%
same,% House Fly Mortality at 48 h,house flies; [10],100%
same,% House Fly Mortality at 4 h,house flies; [11],1.3%
same,% House Fly Mortality at 8 h,house flies; [11],5.9%
same,% House Fly Mortality at 24 h,house flies; [11],83.7%
same,% House Fly Mortality at 48 h,house flies; [11],98.8%
same,% House Fly Mortality at 4 h,house flies; [12],0.6%
same,% House Fly Mortality at 8 h,house flies; [12],39.4%
same,% House Fly Mortality at 24 h,house flies; [12],100%
same,% House Fly Mortality at 48 h,house flies; [12],100%
same,activity compared to Elector,"house flies; at one half the application rate, sheet metal and unpainted concrete panels",equivalent or superior to Elector
same,initial activity compared to Elector,house flies; unpainted plywood,equivalent initial activity
same,residual activity compared to Elector,house flies; unpainted plywood,marginally inferior residual activity
same,initial/knockdown activity against B. annulatus,"Boophilus annulatus; cattle, 0.025% AI",poor
same,Number ♀♀ Ticks per Calf,Boophilus annulatus; [13],2405 ± 306 a
same,Total Index of Fecundity (IF),Boophilus annulatus; [13],287 ± 35.4 a
same,Percentage Control of the IF,"Boophilus annulatus; cattle, 0.025% AI whole-body spray, therapeutic efficacy",28.0 ± 8.9 a %
same,"Percentage control, Adult","Boophilus annulatus; parasitic life stage adult, 0.025% AI",17.2 ± 25.0%
same,"Percentage control, Larval","Boophilus annulatus; parasitic life stage larva, 0.025% AI",38.6 ± 10.6%
same,"Percentage control, Nymph","Boophilus annulatus; parasitic life stage nymph, 0.025% AI",31.6 ± 20.8%
same,"residual efficacy, mean percentage control of the IF, Week 1",Boophilus annulatus; ticks infested as larvae Week 1 after treatment,95.3 ± 3.3%
same,"residual efficacy, mean percentage control of the IF, Week 2",Boophilus annulatus; ticks infested as larvae Week 2 after treatment,96.7 ± 2.3%
same,"residual efficacy, mean percentage control of the IF, Week 3",Boophilus annulatus; ticks infested as larvae Week 3 after treatment,89.3 ± 8.0%
same,"residual efficacy, mean percentage control of the IF, Week 4",Boophilus annulatus; ticks infested as larvae Week 4 after treatment,80.4 ± 11.5%
same,flea reduction 1 hour after additional infestation,fleas (C. felis); 28 days after treatment,80.7%
same,flea reduction 4 hours after additional infestation,fleas (C. felis); 28 days after treatment,91.6%
same,flea reduction 8 hours after additional infestation,fleas (C. felis); 28 days after treatment,98.5%
same,flea reduction 12 hours after additional infestation,fleas (C. felis); 28 days after treatment,100%
same,flea reduction 24 hours after additional infestation,fleas (C. felis); 28 days after treatment,100%
same,"reduction in live flea numbers, four hours after treatment","fleas (C. felis); cats, 210 mg/0.5 ml dose, 4 hours",63.2%
same,"efficacy level, eight hours post-dosing","fleas (C. felis); cats, 210 mg/0.5 ml dose, 8 hours",94.6%
same,"efficacy, twelve hour time point","fleas (C. felis); cats, 210 mg/0.5 ml dose, 12 hours",98.6%
same,"efficacy, twenty-four hour time point","fleas (C. felis); cats, 210 mg/0.5 ml dose, 24 hours",100%
same,flea reduction 4 hours after additional infestation,fleas (C. felis); seven days after treatment,100%
same,flea reduction 8 hours after additional infestation,fleas (C. felis); seven days after treatment,100%
same,flea reduction 12 hours after additional infestation,fleas (C. felis); seven days after treatment,100%
same,flea reduction 24 hours after additional infestation,fleas (C. felis); seven days after treatment,100%
same,fleas killed within one hour of an additional infestation,"fleas (C. felis); seven days after treatment, 1 hour",over 90%
